Results as given in article PMC7763995 (Molecules, 2020).

Assays:
Human erythrocyte AChE [1] = molecular target: T1, Human erythrocyte AChE (Homo sapiens, UniProt P22303); experiment: Kinetic study of AChE inhibition, steady-state inhibition constants; assay type: biochemical
T1 construct: AChE from human erythrocytes was used; purchased Sigma-Aldrich; host or cells: human erythrocytes
Procedure: (§1) Mechanisms of human erythrocyte AChE and equine serum BChE inhibition were assessed via a thorough analysis of enzyme kinetics. Residual activity was measured following 5 min incubation at 25°C (for temperature equilibration) with three increasing concentrations of inhibitor and six decreasing substrate concentrations. Substrate was added immediately after the 5 min incubation with inhibitor and the rates of absorption were monitored at 412 nm using a FLUOStar OPTIMA microplate reader.

[2] = FRAP (ferric reducing antioxidant power) assay; details: 20 µM, 1 h incubation; ratio of concentrations of Trolox and test compound with same effect
Procedure: The FRAP (ferric reducing antioxidant power) assay proposed by Benzie and Strain [80, 81] was modified to be performed in 96-well microplates. The FRAP reagent contained 2.5 mL of 10 mM TPTZ (2,4,6-tris(2-pyridyl)-s-triazine (Sigma-Aldrich) solution in 40 mM HCl, 2.5 mL of 20 mM FeCl3 (Sigma-Aldrich) in distilled water and 25 mL of 0.3 M acetate buffer (pH 3.6). In 96-well microplates, 10 µL aliquots of the substance under investigation (compounds 7, 8 or reference substance) dissolved in DMSO (0.5 mM) were placed in quadruplicate. The FRAP reagent (240 µL) freshly prepared and warmed to 37°C was added to three of these samples, while the same volume of acetate buffer was added to the fourth one (blank). Consequently, the concentration of the substance in a plate was 20 µM. The absorbance at 600 nm was monitored spectrophotometrically with a FLUOStar OPTIMA microplate reader at 37°C for an hour with an interval of 5–10 min. Data in Table 2 are given for 1 h of incubation of compounds with FRAP reagent. The absorbances of the blanks and those of the mixture of 240 µL FRAP reagent plus 10 µL DMSO were subtracted from the absorbances of the samples at each time interval to calculate the absorbance change. Standard antioxidants Trolox and BHT dissolved in DMSO and analyzed as described above were used as reference compounds. A calibration curve with linear formula y = 0.03x (R^2 = 0.998, p < 0.0001) was obtained for Trolox solution in DMSO in the range 2.5–100 µM and the results were expressed as FRAP units (the values calculated as the ratio of the concentrations of Trolox and the test compound resulting in the same effect.)

Human erythrocyte AChE [3] = molecular target: T1, Human erythrocyte AChE; experiment: biochemical; details: mean ± SEM, n = 3; n.a. = not active; read-out: Human Erythrocyte AChE, IC50
Procedure: (§2) Measurements were performed with a FLUOStar Optima microplate reader (BMG Labtech, Ortenberg, Germany). Compounds were dissolved in DMSO, the incubation mixture contained 2% solvent.

Equine serum BChE [4] = molecular target: T2, Equine serum BChE (Equus caballus, UniProt P81908); experiment: biochemical
T2 construct: equine serum BChE; purchased Sigma-Aldrich; host or cells: equine serum
Procedure: as §2

Equine serum BChE [5] = molecular target: T2, Equine serum BChE; experiment: Kinetic study of BChE inhibition, steady-state inhibition constants; assay type: biochemical
Procedure: as §1

Porcine liver CES = experiment: In vitro CES inhibition, 4-NPA substrate; assay type: biochemical; details: compound concentration 20 µM; n.a. = not active
Procedure: as §2

EeAChE PAS = molecular target: T3, EeAChE PAS (Electrophorus electricus, UniProt O42275); assay type: binding; details: compound concentration 20 µM
T3 construct: Electric eel AChE (EeAChE, type VI-S, lyophilized powder); purchased Sigma-Aldrich type VI-S; host or cells: electric eel
Procedure: Electric eel AChE (EeAChE, type VI-S, lyophilized powder, Sigma-Aldrich, Saint Louis, MO, USA) was used owing to its high degree of purification, high activity, and lower cost compared to human AChE.
The blank contained propidium iodide of the same concentration in 1 mM Tris-HCl buffer pH 8.0. The measurements were carried out in triplicate on a FLUOStar Optima microplate reader, and the results were calculated by formula (1):% Displacement = 100 − (IFAChE+ Propidium + inhibitor / IFAChE + Propidium) × 100(1) where IFAChE + Propidium is the fluorescence intensity of the propidium associated with AChE in the absence of the test compound (taken as 100%), and IFAChE + Propidium + inhibitor is the fluorescence intensity of the propidium associated with AChE in the presence of the test compound.

mouse brain homogenate = experiment: Luminol chemiluminescence assay in mouse brain homogenate (TBHP-initiated); details: compound concentration 20 µM; mice brain homogenate
Procedure: The work was carried out in accordance with the EU Directive 2010/63/EU. Hybrid BDF1 mice (about 6 months old) were sacrificed by decapitation. Each brain was rapidly excised, frozen in liquid nitrogen, and stored at −80°C until use. The brains were thawed and homogenized using a Wisd WiseTis HG-15D homogenizer for 2 min in a buffer (0.01 M PBS, pH 7.4 or 0.1 M Tris-HCl, pH 7.4). Protein concentrations were determined by the Lowry method.
Luminol-dependent chemiluminescence produced by mouse brain homogenates was measured using a 1250 Luminometer (LKB Wallac, Turku, Finland) according to the assay by Di Meo et al. with minor modifications. The reaction mixture consisted of mouse brain homogenate (protein concentration 0.1 mg/mL) in 0.1 M Tris-HCl (Sigma-Aldrich), pH 7.4, luminol (Sigma-Aldrich) (0.05 mM), TBHP (Sigma-Aldrich) (0.073 M) and tested compounds at a concentration of 20 μM. This was placed in a light-proof luminometer chamber and the background reading was recorded. All measurements were carried out at 37°C. The gain control was set to give a reading of 10 mV using a built-in standard. The free radical content in mouse brain homogenate was evaluated by the change in the light sum (the area under the kinetic curve of luminescence intensity for the entire luminescence time). All compounds were examined at least in triplicate. The effects of tested compounds were measured as the percentage decrease in the light sum relative to the control (a sample with no compound added).

T1 sequence (P22303 32-617 isoform P22303-2 limits assumed): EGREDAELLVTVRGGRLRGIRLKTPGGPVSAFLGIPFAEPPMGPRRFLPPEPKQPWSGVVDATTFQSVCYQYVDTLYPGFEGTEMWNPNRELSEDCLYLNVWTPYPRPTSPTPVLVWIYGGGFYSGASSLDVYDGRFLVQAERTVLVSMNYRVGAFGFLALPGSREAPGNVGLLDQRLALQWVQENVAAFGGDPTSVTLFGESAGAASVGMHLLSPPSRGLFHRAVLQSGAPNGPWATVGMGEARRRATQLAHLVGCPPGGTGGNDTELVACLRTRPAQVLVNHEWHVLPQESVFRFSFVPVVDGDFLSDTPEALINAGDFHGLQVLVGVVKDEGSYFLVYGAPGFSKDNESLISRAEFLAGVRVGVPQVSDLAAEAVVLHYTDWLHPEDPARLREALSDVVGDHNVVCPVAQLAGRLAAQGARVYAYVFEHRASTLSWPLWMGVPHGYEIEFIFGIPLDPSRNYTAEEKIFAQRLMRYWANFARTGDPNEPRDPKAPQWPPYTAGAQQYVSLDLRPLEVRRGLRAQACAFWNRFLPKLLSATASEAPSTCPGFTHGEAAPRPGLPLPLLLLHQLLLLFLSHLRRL
T2 sequence (P81908 whole entry): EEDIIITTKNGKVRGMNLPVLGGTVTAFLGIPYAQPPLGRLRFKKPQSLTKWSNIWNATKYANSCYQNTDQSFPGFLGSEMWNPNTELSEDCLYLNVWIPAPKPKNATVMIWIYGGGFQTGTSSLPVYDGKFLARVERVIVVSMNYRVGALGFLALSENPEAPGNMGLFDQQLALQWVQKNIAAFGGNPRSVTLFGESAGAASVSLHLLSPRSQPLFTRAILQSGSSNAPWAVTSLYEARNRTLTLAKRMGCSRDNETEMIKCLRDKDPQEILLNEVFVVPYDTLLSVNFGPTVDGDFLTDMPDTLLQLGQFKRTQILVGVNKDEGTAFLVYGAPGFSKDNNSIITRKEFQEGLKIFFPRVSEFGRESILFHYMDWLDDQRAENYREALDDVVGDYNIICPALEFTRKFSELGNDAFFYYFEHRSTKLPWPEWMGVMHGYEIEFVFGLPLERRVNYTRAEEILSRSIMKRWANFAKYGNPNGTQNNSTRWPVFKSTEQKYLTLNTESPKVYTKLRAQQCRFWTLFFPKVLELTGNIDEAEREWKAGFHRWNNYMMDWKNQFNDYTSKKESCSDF
T3 sequence (O42275 24-633): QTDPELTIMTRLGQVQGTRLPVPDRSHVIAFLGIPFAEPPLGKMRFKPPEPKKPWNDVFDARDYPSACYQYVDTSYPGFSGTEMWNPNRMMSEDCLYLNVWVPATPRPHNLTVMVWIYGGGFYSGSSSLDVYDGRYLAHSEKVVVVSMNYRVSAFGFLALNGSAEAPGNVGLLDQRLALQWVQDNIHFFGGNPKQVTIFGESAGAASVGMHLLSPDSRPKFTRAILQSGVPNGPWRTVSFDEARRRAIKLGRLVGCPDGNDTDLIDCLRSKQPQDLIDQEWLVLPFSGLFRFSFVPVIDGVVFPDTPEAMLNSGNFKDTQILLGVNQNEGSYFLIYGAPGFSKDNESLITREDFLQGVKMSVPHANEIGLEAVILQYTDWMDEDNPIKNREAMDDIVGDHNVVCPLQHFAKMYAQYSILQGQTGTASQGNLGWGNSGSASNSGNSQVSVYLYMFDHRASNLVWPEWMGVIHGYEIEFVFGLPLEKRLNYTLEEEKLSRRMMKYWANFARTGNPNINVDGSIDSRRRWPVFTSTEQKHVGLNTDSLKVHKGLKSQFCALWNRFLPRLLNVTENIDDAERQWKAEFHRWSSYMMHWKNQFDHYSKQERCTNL

With `CC(C)(C)c1cc(C=NCCNc2c3c(nc4ccccc24)CCCCC3)cc(C(C)(C)C)c1O` [Compound 7c, 2,6-Di-tert-butyl-4-{[2-(7,8,9,10-tetrahydro-6H-cyclohepta[b]quinolin-11-ylamino)-ethylimino]-methyl}-phenol] as the compound, how does the “αKi (noncompetitive component), AChE” value (Human erythrocyte AChE [1]; Lineweaver-Burk plots) read?
Its value is 4.30 ± 0.02 µM.

And the Ki (Human erythrocyte AChE [1]; Lineweaver-Burk plots, read-out: Ki (competitive component), AChE)?
The Ki was 1.58 ± 0.1 µM.

And the “Mechanism of AChE inhibition” value (Human erythrocyte AChE [1]; changes in both Km and Vmax)?
Its value is “mixed type of reversible inhibition”.

What about the “Ferric Reducing Antioxidant Power, FRAP Units” value [2] of the same compound?
The value was 0.52 ± 0.04.

What about the IC50 (Human erythrocyte AChE [3]) of the same compound?
Its IC50 is 4.03 ± 0.03 µM.

What about the “Selectivity for BChE” value (Equine serum BChE [4]; IC50 AChE / IC50 BChE) of the same compound?
The value was 9.6.

What about the IC50 (Equine serum BChE [4]; mean ± SEM, n = 3, n.a. = not active, read-out: Equine Serum BChE, IC50) of the same compound?
Its IC50 is 0.419 ± 0.04 µM.

And the “αKi (noncompetitive component), BChE” value (Equine serum BChE [5]; Lineweaver-Burk plots)?
Its value is 0.437 ± 0.010 µM.

What about the Ki (Equine serum BChE [5]; Lineweaver-Burk plots, read-out: Ki (competitive component), BChE) of the same compound?
Its Ki is 0.164 ± 0.005 µM.

What about the “Mechanism of BChE inhibition” value (Equine serum BChE [5]; changes in both Km and Vmax) of the same compound?
Its value is “mixed type of reversible inhibition”.

And the “Porcine Liver CES, (%) inhibition” value (Porcine liver CES)?
Its value is 30.1 ± 2.5%.

What about the “Displacement of Propidium from EeAChE PAS (%)” value (EeAChE PAS) of the same compound?
Its value is 16.3 ± 1.3%.

What about the “Radical Scavenging Capacity in Luminol Chemiluminescence Assay, Luminescence Inhibition, %” value (mouse brain homogenate) of the same compound?
Its value is 95.0 ± 0.4%.
